Laboratory results published in US20040198663A1, “Method of treating cardiac ischemia by using erythropoietin” (priority 2003, published 2004).

Tests used:
Experiment in all cases: Western analysis of cytosolic and particulate fractions of erythropoietin-treated hearts
Design in all cases: species or system rabbit
[1] = test system: p42/44 MAP kinase
Experimental: (§1) Western analysis. Hearts from infant rabbits were isolated and aerobically perfused with bicarbonate buffer for 30 minutes at constant pressure, then perfused with erythropoietin for 5 or 15 minutes. The free wall of the left ventricle was excised and immediately freeze-clamped between stainless steel tongs pre-cooled with liquid nitrogen. Frozen myocardial tissue samples were powdered in a pre-cooled stainless steel mortar and pestle.
(§2) The powdered tissue was then processed to obtain cytosolic and particulate fractions for Western analysis, as described in Raflee et al., Circulation 106:239-45 (2002). Powdered tissue was homogenized in sample buffer (50 mM Tris pH 7.5, 5 mM EDTA, 10 mM EGTA, 10 mM benzamidine, 10 μg/ml pepstatin A, 50 μg/ml PMSE, 10 μg/ml aprotinin, 10 μg/ml leupeptin, and 0.3% β-mercaptoenthanol) on ice for 50 strokes. Nuclei and cellular debris was removed by centrifugation (1000 g at. 4° C. for 15 min). The supernatant was transferred to a new cold 1.5 mL microcentrifuge tube. The cytosolic and particulate portions of total cellular proteins were separated by a 30-minute centrifugation at 45000 g. Protein concentrations were determined by the method of Bradford. Equal amounts of protein were analyzed by SDS-PAGE and Western blotting by using either isoform-specific antibodies for phospho-PKC detection or specific antibodies against phosphorylated and non-phosphorylated p38 MAPK, JNK, and p42/44 MAPK. The blots were developed by ECL. Densitometry was performed on each sample and analyzed with the use of NIH image software. Rafiee et al., Circulation 106:239-45 (2002).
(§3) Cytosolic and particulate fractions from erythropoietin-treated and untreated hearts were prepared. Protein content for PKCε, p38 MAP kinase, p42/44 MAP kinase and JUN kinase was determined by SDS-PAGE and Western blot analysis using monoclonal antibodies specific for PKCε, phosphorylated p38 MAP kinase (Thr180/Tyr182), p42/44 MAP kinase (Thr202/Tyr204), and JUN kinase (Thr183/Tyr185). Non-phosphorylated antibodies were used to ensure equal loading of proteins.

[2] = test system: p38 MAP kinase
Experimental: as §1, §2, §3

[3] = test system: JUN kinase
Experimental: as §1, §2, §3

[4] = erythropoietin 1.0 U/ml for 5 minutes
[5] = erythropoietin 1.0 U/ml for 15 minutes

Q: What does the source list for “erythropoietin: Recombinant human erythropoietin, a glycoprotein hormone, obtained from Cell Science, Inc.”?
A: treatment time at which phosphorylation of p42/44 MAP kinase was maximal ([1]; erythropoietin 1.0 U/ml): 15 min; phosphorylation of p42/44 MAP kinase [1, 4]: remarkable phosphorylation of p42/44 MAP kinase in the cytosolic fraction with minor phosphorylation in the particulate fraction; phosphorylation of p42/44 MAP kinase [1, 5]: enhanced phosphorylation of p42/44 MAP kinase in the cytosolic fraction and in the particulate fraction; treatment time at which phosphorylation of p38 MAP kinase was maximized ([2]; erythropoietin 1.0 U/ml): 5 min; phosphorylation of p38 MAP kinase [2, 4]: phosphorylation of p38 MAP kinase in the cytosolic fraction but not in the particulate fraction; extent of phosphorylation of p38 MAP kinase [2, 5]: declined; treatment time at which phosphorylation of JUN kinase was maximized ([3]; erythropoietin 1.0 U/ml): 5 min; phosphorylation of JUN kinase [3, 4]: phosphorylation of JUN kinase in the cytosolic fraction but not in the particulate fraction; phosphorylation of JUN kinase in the cytosolic fraction [3, 5]: declined
